Where two headings read alike, the source gives them in different places.
Columns and labels:
[1] = test system: in vitro and murine xenograft models; details: BI 2536 combined with cisplatin, cited from earlier work
[2] = Plasma pharmacokinetics of volasertib and CD 10899 (HPLC-MS/MS); type: in vivo, human; details: for clearance / Vd / half-life: human, intravenous; for clearance / Vd / half-life / AUC0-∞,norm, gMean / Cmax,norm, gMean: plasma; for clearance / Vd / half-life / AUC0-∞,norm, gMean: n = 28; for clearance: read-out: CL (total clearance), gMean; for Vd: read-out: Vss (apparent volume of distribution at steady state), gMean; for half-life: read-out: t1/2 (terminal half-life), gMean (converted)
Description: Blood was collected at specified time points during the first and second cycles of each treatment schedule for pharmacokinetic analyses to determine the plasma concentration of volasertib and/or total platinum. Plasma concentrations in cycle 1 were determined before the start of platinum infusions (–1 hour 35 minutes relative to the start of the volasertib infusion), shortly before the end of platinum infusion (–30 minutes), during volasertib infusion (1 hour), immediately before the end of volasertib infusion (2 hours), and at 3, 8, 24, 48, 168, and 336 hours after the start of volasertib infusion. The plasma concentrations in cycle 2 were determined before the start of platinum infusions (–1 hour 35 minutes), shortly before end of platinum infusion (–30 minutes), and immediately before the end of volasertib infusion (2 hours). Plasma concentrations of both volasertib and CD 10899, the predominant circulating hydroxylated metabolite of volasertib previously identified in early clinical studies of volasertib metabolism in cancer patients, were determined simultaneously by validated high performance liquid chromatography-tandem mass spectrometry (HPLC-MS/MS) assay using [D3]volasertib and [D3]CD 10899 as internal standards. The samples were subjected to solid-phase extraction in a 96-well plate format. Chromatography was achieved on an analytical reversed-phase HPLC column with gradient elution. The substances were detected and quantified by HPLC-MS/MS using electrospray ionization in the positive ion mode. Assay performance during the study was assessed by back-calculation of calibration standards, tabulation of the standard curve fit function parameters and measurement of quality control samples. […] Samples were diluted and acidified prior to analysis and were introduced into the ICP-MS system without further sample preparation. The ions were separated and detected in the mass spectrometer and the peak areas of platinum and lutetium were determined.

[3] = test system: unrelated kinases (>50 other kinases); set-up: method as in PMID 19383823; details: at concentrations up to 10 μM; cited from earlier work
[4] = test system: Plk; set-up: method as in PMID 19383823; details: cited from earlier work
[5] = test system: patients with progressive advanced or metastatic solid tumors; set-up: method as in PMID 22119200; details: cited from earlier work
[6] = set-up: method as in PMID 19383823; details: preclinical studies, compared with BI 2536; cited from earlier work
[7] = volasertib combined with carboplatin
[8] = volasertib combined with cisplatin

SMILES	Efficacy compared with cisplatin alone ([1]; in vitro and murine xenograft models)	Combination effect versus either therapy alone ([1]; preclinical data)	Influence of cisplatin or carboplatin on the pharmacokinetics or metabolism of volasertib ([2]; co-administration)	clearance [2, 7]	Vd [2, 7]	half-life [2, 7]	clearance [2, 8]	Vd [2, 8]	half-life [2, 8]	AUC0-∞,norm, gMean ([2]; volasertib i.v. infusion combined with carboplatin)	Cmax,norm, gMean ([2]; volasertib i.v. infusion combined with carboplatin, n = 29)	AUC0-∞,norm, gMean ([2]; volasertib i.v. infusion combined with cisplatin)	Cmax,norm, gMean ([2]; volasertib i.v. infusion combined with cisplatin, n = 30)	Inhibition of unrelated kinases (>50 other kinases) [3]	Concentrations at which Plk is targeted (mitotic arrest and apoptosis) [4]	MTD of single-agent volasertib ([5]; phase I study, monotherapy)	Recommended dose for further clinical investigation ([5]; single agent, based on overall tolerability)	Patients with confirmed partial response (PR) ([5]; single agent, urothelial cancer, ovarian cancer, or melanoma)	Terminal half-life (t1/2) [6]	Volume of distribution [6]
CC[C@@H]1C(=O)N(C)c2cnc(Nc3ccc(C(=O)NC4CCN(C)CC4)cc3OC)nc2N1C1CCCC1 [BI 2536]	improved efficacy	may confer synergism	–	–	–	–	–	–	–	–	–	–	–	–	–	–	–	–	–	–
CC[C@@H]1C(=O)N(C)c2cnc(Nc3ccc(C(=O)N[C@H]4CC[C@H](N5CCN(CC6CC6)CC5)CC4)cc3OC)nc2N1C(C)C [Volasertib]	–	–	no influence	865 mL/min	7550 L	166 h	999 mL/min	6780 L	137 h	19.3 [ng · h/mL]/mg	1.40 [ng/mL]/mg	16.7 [ng · h/mL]/mg	1.29 [ng/mL]/mg	does not inhibit	low nanomolar concentrations	400 mg	300 mg	three patients	long terminal half-life	high volume of distribution

From publication PMC4435638, “Phase I trial of volasertib, a Polo-like kinase inhibitor, plus platinum agents in solid tumors: safety, pharmacokinetics and activity” (Investigational New Drugs, 2015)
